Experimental data published in patent publication US12533353B2, “Methods of treatment of cancer comprising CDC7 inhibitors” (CARNA BIOSCIENCES, INC., priority 2018, dated 2026).
Values joined by “and” are separate entries in the source; they are usually repeats but may differ in a detail not shown here. Equal values may be shown once. Read-outs that look alike come from different tables or passages of the source.

Legend:
[1] = test system: pMCM2-S40, pMCM2-S53, pMCM2-S41, pHH3; experiment: Immunohistochemistry in rat MV-4-11 xenograft tumor and skin; assay type: in vivo
Protocol: Rats bearing subcutaneous biphenotypic B myelomonocytic leukemia MV-4-11 tumors were treated with SRA141 at 75 mg/kg or vehicle, BID, or with SRA141 at 100 mg/kg, QD, for 5 days. Tumors were collected from the animals 12 hours after administration of the last dose. Formalin fixed paraffin-embedded tumor and/or skin were assessed by immunohistochemistry for total MCM2, phosphorylated MCM2 at Serine 40 (pMCM2-S40) and phosphorylated MCM2 at Serine 53 (pMCM2-S53), phosphorylated MCM2 at Serine 41 (pMCM2-S41), and phosphorylated-Histone H2A.X at Serine 139 effects at steady-state.
Tumor cells in xenograft tumors (but not stroma or surrounding rat tissue) were scored. Scoring is performed semi-quantitatively with the main components to scoring tumor cells for total MCM2, pMCM2-S53, pMCM2-S40, and gH2AX reactivity as percentages at differential intensities and H-Scores. Percentage and intensity measures are estimated by a scientist in the same relative region of tumor (one 40×-field from the bottom edge) within each xenograft sample.
The H-Score approach used to evaluate the xenograft tissues requires recording the percentage of tumor cells with nuclear staining at a corresponding differential intensity on a four-point semi-quantitative scale (0, 1+, 2+, 3+). […]
The H-Score is calculated by summing the percentage of cells with intensity of expression (brown staining) multiplied by their corresponding differential intensity on a four-point semi-quantitative scale (0, 1+, 2+, 3+). […]
Epithelial cells of the epidermis in rat skin samples were scored […] by two scientists. Scoring was performed quantitatively with the main component to scoring epidermal cells for total MCM2, pMCM2-S53, pMCM2-S40, and gH2AX reactivity as counts of positive cells. […] For pMCM2-S53 and pMCM2-S40, the number of positive cells in a 10× field at the four representative regions was counted. For gH2Ax, the number of positive cells in a 20× field at the four representative regions was counted. Cells were counted if staining was readily observed at 10× or 20×, regardless of intensity. Cells were only counted within the flat epidermis and not in regions of invagination in order to consistently capture the same total area.
The number of positive skin cells counted across the regions analyzed for each skin sample were averaged for each biomarker. […]
Skin cell counts were performed by recording the number of positive cells (at any intensity) counted by two independent scientists in multiple regions of skin (two regions for total MCM2, four regions for pMCM2 and gH2AX) that are in the same approximate location for each sample. The number of positive cells recorded at each skin region for each biomarker were averaged for each sample. […]

[2] = In vitro metabolism in hepatocytes; assay type: in vitro ADME
From the text: Eleven metabolites were identified across species, of which 6 occurred in the human matrix. One human-specific metabolite was identified, but only at trace levels. The mouse, rat and dog hepatocyte metabolite profiles contained all the other human metabolites.

[3] = 4-cycle repeat oral dose toxicology study (5 days on/2 days off); assay type: in vivo, dog; conditions: for Cmax / AUC(0-t): plasma, po; for AUC(0-t): read-out: AUC24 h
Protocol: Toxicology studies evaluating SRA141 were conducted in rat and dog following single and repeat oral dosing for up to 4 cycles (5 days on/2 days off per cycle). In addition, the potential genetic toxicity of SRA141 was evaluated in vitro.

SW620 tumor xenografts = experiment: SW620 colorectal xenograft study (mouse); assay type: in vivo; conditions: for tumor growth inhibition: Day 21
Protocol: Female BALB/c mice bearing SW620 tumor xenografts were orally administered (i) vehicle (0.1 M HCl/0.5% MC400) or (ii) SRA141 60 mg/kg three times a day (TID) for 4 consecutive days followed by a 2-day dosing holiday for 21 days or (iii) SRA141 120 mg/kg QD for 21 days (n=10 per treatment group). Tumor growth inhibition was calculated on Day 21, the final day of the study. All vehicle control animals remained on study on Day 21.

[4] = Absolute oral bioavailability; conditions: in vivo, free base suspension, fasted, range given for mouse, rat and dog together, read-out: absolute oral bioavailability (% F)
AM5512 = experiment: AML PDX ex vivo 3D culture, 5 days; assay type: cell-based
Protocol: (§1) The activity of SRA141 was investigated in in vitro and ex vivo three-dimensional (3D) cultures prepared from three AML cell lines (EOL-1, Molm-16 and MV-4-11) and three AML PDX models (AM5512, AM7440 and AM7577), respectively. Tumor cultures were treated with SRA141 (0.08 to 33 μM) for 5 days.

AM7577 = experiment: AML PDX ex vivo 3D culture, 5 days; assay type: cell-based
Protocol: as §1

AM7440 = experiment: AML PDX ex vivo 3D culture, 5 days; assay type: cell-based
Protocol: as §1

[5] = In vitro plasma protein binding; assay type: in vitro ADME; conditions: range given for mouse and dog together
[6] = 2 mg/kg/day, at NOAEL, dog, female
[7] = 2 mg/kg/day, at NOAEL, dog, male
[8] = 10 mg/kg/day, at MTD/HNSTD, dog, female
[9] = 10 mg/kg/day, at MTD/HNSTD, dog, male

Compound: CCOC(=O)C1=C(NN2CCN(CC(F)(F)F)CC2)O/C(=C\c2c[nH]c3ncccc23)C1=O [SRA141]
- pMCM2 at S40 and S53 in tumor ([1]; 75 mg/kg BID or 100 mg/kg QD, 5 days, 12 hours after last dose): substantial decreases
- mitotic (pHH3) and apoptotic cells (H&E) in tumors compared to vehicle ([1]; after 5 days of dosing): fewer mitotic cells and an increased presence of apoptotic cells
- pMCM2-S41 ([1]; after SRA141 treatment): no effects
- pMCM2-S40 in tumor and skin versus dose ([1]; various dosages): dose-dependent decrease
- metabolic stability ([2]; dog hepatocytes): favorable metabolic stability
- metabolic stability ([2]; rat hepatocytes): favorable metabolic stability
- NOAEL Dose ([3]; dog): 40 mg/m2/day
- MTD/HNSTD Dose ([3]; dog (HNSTD)): 200 mg/m2/day
- NOAEL at 4 cycles (5 days on/2 days off) ([3]; dog, in vivo, oral): 2 mg/kg/day
- MTD at 4 cycles (5 days on/2 days off) ([3]; in vivo, oral, dog (HNSTD)): 10 mg/kg/day
- Cmax [3, 6]: 129 ng/mL
- AUC(0-t) [3, 6]: 804 ng·h/mL
- Cmax [3, 7]: 98 ng/mL
- AUC(0-t) [3, 7]: 859 ng·h/mL
- Cmax [3, 8]: 576 ng/mL
- AUC(0-t) [3, 8]: 6840 ng·h/mL
- Cmax [3, 9]: 497 ng/mL
- AUC(0-t) [3, 9]: 5660 ng·h/mL
- potential target organs for SRA141-related toxicity ([3]; rat and dog repeat-dose studies together, dog most sensitive species): gallbladder/biliary system, lymphoid tissues (spleen, thymus, lymph node and GALT), bone marrow, liver, kidney, male and female reproductive tract, peripheral leukocytes, and salivary gland
- mice with maximum body weight loss greater than 20% (SW620 tumor xenografts; 60 mg/kg TID): Four of 10
- tumor growth inhibition (SW620 tumor xenografts; 60 mg/kg TID, 4 days on/2 days off): 78%
- mice meeting the 20% weight loss threshold (SW620 tumor xenografts; 120 mg/kg QD): None
- tumor growth inhibition (SW620 tumor xenografts; 120 mg/kg QD): 73%
- bioavailability [4]: 31 to 54%
- IC50 (AM5512): 3200 nM and 3160 nM
- IC50 (AM7577): 150 nM
- IC50 (AM7440): 1610 nM
- fraction unbound [5]: 0.23 to 0.42
